Measurements as given in patent publication US8653087B2, “Pyrido [5, 4-D] pyrimidines as cell proliferation inhibitors” (Boehringer Ingelheim International GmbH, priority 2008, dated 2014).
pIC50: −log10 of the molar value.

Target: B-Raf (V600E)-kinase (Homo sapiens (Human), UniProt P15056, V600E)
Assay: Kinase test B-RAF (V600E)
Format: biochemical
Conditions: B-RAF (V600E) kinase test, 250 μM ATP
Summary of the method: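 Read-out is DELFIA europium TRF of phospho-MEK (Ser217/221) on biotinylated MEK1 bound to streptavidin plates, IC50 from dose-response. Reaction ran 60 min at RT with 250 μM ATP, after a 24 h RT preincubation of compound with B-Raf (V600E) kinase, 5% DMSO final.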

Chain of B-Raf (V600E)-kinase (P15056 whole entry V600E): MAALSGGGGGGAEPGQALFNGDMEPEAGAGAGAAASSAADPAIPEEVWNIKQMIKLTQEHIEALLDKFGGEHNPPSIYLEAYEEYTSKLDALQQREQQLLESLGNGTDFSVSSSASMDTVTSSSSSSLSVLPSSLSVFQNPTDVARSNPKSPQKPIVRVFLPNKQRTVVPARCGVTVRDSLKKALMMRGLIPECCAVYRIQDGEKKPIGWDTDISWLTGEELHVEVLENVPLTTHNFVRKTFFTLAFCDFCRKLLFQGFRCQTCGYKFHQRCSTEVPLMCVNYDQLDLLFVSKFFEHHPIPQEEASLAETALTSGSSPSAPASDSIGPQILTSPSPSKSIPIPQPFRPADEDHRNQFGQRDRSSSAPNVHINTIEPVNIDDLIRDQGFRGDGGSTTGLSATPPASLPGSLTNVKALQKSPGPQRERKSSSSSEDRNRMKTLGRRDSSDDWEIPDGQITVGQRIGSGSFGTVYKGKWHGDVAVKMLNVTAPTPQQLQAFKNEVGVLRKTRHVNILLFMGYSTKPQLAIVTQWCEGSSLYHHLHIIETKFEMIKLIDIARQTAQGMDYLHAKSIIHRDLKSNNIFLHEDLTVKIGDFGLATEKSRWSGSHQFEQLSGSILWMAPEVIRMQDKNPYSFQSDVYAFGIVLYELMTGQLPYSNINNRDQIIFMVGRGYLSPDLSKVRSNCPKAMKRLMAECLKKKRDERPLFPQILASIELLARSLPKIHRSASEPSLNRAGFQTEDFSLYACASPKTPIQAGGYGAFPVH

| SMILES | pIC50 |
| --- | --- |
| COc1ccc(NC(=O)c2ccc(C)c(Nc3ncnc4cnc(N5C[C@@H](C)O[C@@H](C)C5)nc34)c2)cc1C(F)(F)F [III-550] | 8.40 |
| COc1ccc(NC(=O)c2ccc(C)c(Nc3ncnc4cnc(N5CCCOCC5)nc34)c2)cc1C(F)(F)F [III-551] | 9.00 |
| COc1ccc(NC(=O)c2ccc(C)c(Nc3ncnc4cnc(N5CCN(CCN6CCOCC6)CC5)nc34)c2)cc1C(F)(F)F [III-552] | 7.77 |
| COc1ccc(NC(=O)c2ccc(C)c(Nc3ncnc4cnc(N5CCN(CCCN6CCCC6)CC5)nc34)c2)cc1C(F)(F)F [III-553] | 8.70 |
| COc1ccc(NC(=O)c2ccc(C)c(Nc3ncnc4cnc(N5CCN(CC6CCCN(C)C6)CC5)nc34)c2)cc1C(F)(F)F (centres unmarked) [III-554] | 8.52 |
| COc1ccc(NC(=O)c2ccc(C)c(Nc3ncnc4cnc(N5CCN6CCCCC6C5)nc34)c2)cc1C(F)(F)F (centres unmarked) [III-555] | 7.74 |
| COc1ccc(NC(=O)c2ccc(C)c(Nc3ncnc4cnc(N5CCC(N6CCCCC6)CC5)nc34)c2)cc1C(F)(F)F [III-556] | 8.15 |
| COc1ccc(NC(=O)c2ccc(C)c(Nc3ncnc4cnc(N5CCN(C6CCN(C)CC6)CC5)nc34)c2)cc1C(F)(F)F [III-557] | 8.40 |
| COc1ccc(NC(=O)c2ccc(C)c(Nc3ncnc4cnc(N5CCC(N6CCOCC6)CC5)nc34)c2)cc1C(F)(F)F [III-558] | 7.64 |
| COc1ccc(NC(=O)c2ccc(C)c(Nc3ncnc4cnc(N5CCC(N6C[C@@H](C)O[C@@H](C)C6)CC5)nc34)c2)cc1C(F)(F)F [III-559] | 7.85 |
| COc1ccc(NC(=O)c2ccc(C)c(Nc3ncnc4cnc(N5CCC(N6CCCC6)CC5)nc34)c2)cc1C(F)(F)F [III-560] | 8.15 |
| CCN1CCN(c2ncc3ncnc(Nc4cc(C(=O)Nc5ccc(OC)c(C(F)(F)F)c5)ccc4C)c3n2)CC1 [III-561] | 8.05 |
| COc1ncc2ncnc(Nc3cc(C(=O)Nc4cc(C(C)(C)C)nn4C)ccc3C)c2n1 [III-565] | 7.96 |
| COc1ncc2ncnc(Nc3cc(C(=O)Nc4cc(N5CCN(C(C)C)CC5)cc(C(F)(F)F)c4)ccc3C)c2n1 [III-567] | 8.70 |
| COc1ncc2ncnc(Nc3cc(C(=O)Nc4cccc(C(F)(F)F)c4)ccc3C)c2n1 [III-568] | 9.00 |
| COc1ncc2ncnc(Nc3cc(C(=O)Nc4ccc(OC)c(C(F)(F)F)c4)ccc3C)c2n1 [III-569] | 8.70 |
| COc1ncc2ncnc(Nc3cc(C(=O)Nc4cccc(C(C)(C)C)c4)ccc3C)c2n1 [III-570] | > 9.00 |
| COc1ncc2ncnc(Nc3cc(C(=O)Nc4cc(N(C)CCN(C)C)cc(C(F)(F)F)c4)ccc3C)c2n1 [III-571] | 8.70 |
| COc1ncc2ncnc(Nc3cc(C(=O)Nc4cc(CN5CCCC5)cc(C(F)(F)F)c4)ccc3C)c2n1 [III-572] | 9.00 |
| COc1ncc2ncnc(Nc3cc(C(=O)Nc4cc(C(C)(C)C)n[nH]4)ccc3C)c2n1 [III-575] | 8.52 |
| COc1ncc2ncnc(Nc3cc(C(=O)Nc4cc(C(C)(C)C)on4)ccc3C)c2n1 [III-577] | 8.70 |
| Cc1ccc(C(=O)Nc2cc(C(C)(C)C)on2)cc1N(C)c1ncnc2cnc(N3CCOCC3)nc12 [III-580] | 7.55 |
| Cc1ccc(C(=O)Nc2cc(C(C)(C)C)on2)cc1N(C)c1ncnc2cnc(NC3CCOC3)nc12 (centres unmarked) [III-581] | 7.48 |
| COCCN1CCN(c2ncc3ncnc(N(C)c4cc(C(=O)Nc5cc(C(C)(C)C)on5)ccc4C)c3n2)CC1 [III-582] | 7.13 |

| SMILES | pIC50 |
| --- | --- |
| Cc1ccc(C(=O)Nc2cc(C(C)(C)C)on2)cc1N(C)c1ncnc2cnc(N3CC[C@H](F)C3)nc12 [III-583] | 7.49 |
| COc1ccc(NC(=O)c2ccc(C)c(N(C)c3ncnc4cnc(N5CCOCC5)nc34)c2)cc1C(F)(F)F [III-584] | 7.74 |
| COc1ccc(NC(=O)c2ccc(C)c(N(C)c3ncnc4cnc(NC5CCOC5)nc34)c2)cc1C(F)(F)F (centres unmarked) [III-585] | 7.57 |
| COCCN1CCN(c2ncc3ncnc(N(C)c4cc(C(=O)Nc5ccc(OC)c(C(F)(F)F)c5)ccc4C)c3n2)CC1 [III-586] | 6.71 |
| COc1ccc(NC(=O)c2ccc(C)c(N(C)c3ncnc4cnc(N5CC[C@H](F)C5)nc34)c2)cc1C(F)(F)F [III-587] | 7.19 |
| Cc1ccc(C(=O)Nc2cc(C(C)(C)C)nn2C)cc1Oc1ncnc2cnc(N3CCOCC3)nc12 [III-591] | 9.00 |
| Cc1ccc(C(=O)Nc2cc(C(C)(C)C)on2)cc1Nc1ncnc2cnc(NC3CC(N4CCN(C)CC4)C3)nc12 (centres unmarked) [III-592] | > 9.00 |
| COc1ccc(NC(=O)c2ccc(C)c(Nc3ncnc4cnc(NC5CC(N6CCN(C)CC6)C5)nc34)c2)cc1C(F)(F)F (centres unmarked) [III-593] | 9.00 |
| COCCN1CCC(Nc2ncc3ncnc(Nc4cc(C(=O)Nc5cc(C(C)(C)C)on5)ccc4C)c3n2)CC1 [III-594] | 9.00 |
| Cc1ccc(C(=O)Nc2ccnc(C(C)(C)C)c2)cc1Nc1ncnc2cnc(NC3CCN(C)CC3)nc12 [III-595] | 9.00 |
| Cc1ccc(C(=O)Nc2cc(C(C)(C)C)on2)cc1Nc1ncnc2cnc(N(C)C3CC(N4CCN(C)CC4)C3)nc12 (centres unmarked) [III-596] | 8.70 |
| Cc1ccc(C(=O)Nc2ccnc(C(C)(C)C)c2)cc1Nc1ncnc2cnc(N(C)C3CC(N4CCN(C)CC4)C3)nc12 (centres unmarked) [III-597] | 8.30 |
| Cc1ccc(C(=O)Nc2cc(C(C)(C)C)on2)cc1Nc1ncnc2cnc(NCCCN(C)C)nc12 [III-598] | > 9.00 |
| COc1ccc(NC(=O)c2ccc(C)c(Nc3ncnc4cnc(N5CCC(CN(C)C)CC5)nc34)c2)cc1C(F)(F)F [III-599] | 9.00 |
| Cc1ccc(C(=O)Nc2cc(C(C)(C)C)n[nH]2)cc1Nc1ncnc2cnc(N3CCC(CN4CCCC4)CC3)nc12 [III-600] | 8.52 |
| CC1=Nc2ccc(NC(=O)c3ccc(C)c(Nc4ncnc5cnc(N6CCC(CN7CCCC7)CC6)nc45)c3)cc2C1(C)C [III-601] | 8.22 |
| Cc1ccc(C(=O)Nc2cc(C(C)(C)C)n[nH]2)cc1Nc1ncnc2cnc(N3CCN(CC4CCOC4)CC3)nc12 (centres unmarked) [III-602] | 8.05 |
| Cc1ccc(C(=O)Nc2cc(C(C)(C)C)on2)cc1Nc1ncnc2cnc(N3CCC4(CCN(C)C4)C3)nc12 (centres unmarked) [III-603] | 9.00 |
| Cc1ccc(C(=O)Nc2ccnc(C(C)(C)C)c2)cc1Nc1ncnc2cnc(N3CCC(CN4CCCC4)CC3)nc12 [III-604] | 8.52 |
| Cc1cn(-c2ncc3ncnc(Nc4cc(C(=O)Nc5cc(C(C)(C)C)n[nH]5)ccc4C)c3n2)cn1 [III-605] | 8.22 |
| Cc1ccc(C(=O)Nc2ccnc(C(C)(C)C)c2)cc1Nc1ncnc2cnc(N3CCC(CCN(C)C)CC3)nc12 [III-606] | 8.52 |
| Cc1ccc(C(=O)Nc2ccc3c(c2)OC(F)(F)C(F)(F)O3)cc1Nc1ncnc2cnc(N3CCN(CCN(C)C)CC3)nc12 [III-607] | 9.00 |
| COCCN1CCN(c2ncc3ncnc(Nc4cc(C(=O)Nc5ccc6c(c5)OC(F)(F)OC6(F)F)ccc4C)c3n2)CC1 [III-608] | 8.15 |
| Cc1ccc(NC(=O)c2cccc(C(C)(C)C#N)c2)cc1Nc1ncnc2cnc(N3CCOCC3)nc12 [IV-2] | > 9.00 |

| SMILES | pIC50 |
| --- | --- |
| Cc1ccc(NC(=O)c2cccc(C(F)(F)F)c2)cc1Nc1ncnc2cnc(N3CCN(C)CC3)nc12 [IV-3] | 7.92 |
| Cc1ccc(NC(=O)c2cc(C(C)(C)C)n[nH]2)cc1Nc1ncnc2cnc(N3CCN(C)CC3)nc12 [IV-4] | 7.36 |
| Cc1ccc(NC(=O)c2cc(C(C)(C)C)on2)cc1Nc1ncnc2cnc(N3CCN(C)CC3)nc12 [IV-5] | 6.89 |
| Cc1ccc(NC(=O)c2cccc(C(C)(C)C#N)c2)cc1Nc1ncnc2cnc(N3CCN(C)CC3)nc12 [IV-7] | 9.00 |
| Cc1ccc(NC(=O)c2cc(C(C)(C)C)nn2C)cc1Nc1ncnc2cnc(N3CCN(C)CC3)nc12 [IV-10] | 6.66 |
| Cc1ccc(NC(=O)c2cccc(C(C)(C)C#N)c2)cc1Nc1ncnc2cnc(N(C)C)nc12 [IV-12] | 9.00 |
| Cc1ccc(NC(=O)c2cc(N3CCN(C)CC3)cc(C(F)(F)F)c2)cc1Nc1ncnc2cnc(N(C)C)nc12 [IV-13] | 8.52 |
| COc1ccc(C(=O)Nc2ccc(C)c(Nc3ncnc4cnc(N(C)C)nc34)c2)cc1C(F)(F)F [IV-15] | 8.52 |
| Cc1ccc(NC(=O)c2cc(N3CCN(C)CC3)cc(C(F)(F)F)c2)cc1Nc1ncnc2cnc(N(C)CCN(C)C)nc12 [IV-18] | 8.05 |
| Cc1ccc(NC(=O)c2cccc(C(C)(C)C#N)c2)cc1Nc1ncnc2cnc(N(C)CCCN(C)C)nc12 [IV-22] | 8.70 |
| Cc1ccc(NC(=O)c2cc(N3CCN(C)CC3)cc(C(F)(F)F)c2)cc1Nc1ncnc2cnc(N(C)CCCN(C)C)nc12 [IV-23] | 8.40 |
| Cc1ccc(NC(=O)c2cc(C(C)(C)C)nn2C)cc1Nc1ncnc2cnc(N(C)CCCN(C)C)nc12 [IV-24] | 7.14 |
| Cc1ccc(NC(=O)c2cccc(C(C)(C)C#N)c2)cc1Nc1ncnc2cnc(N3CCN(C4CC4)CC3)nc12 [IV-26] | 8.70 |
| CCN1CCN(c2ncc3ncnc(Nc4cc(NC(=O)c5cccc(C(C)(C)C#N)c5)ccc4C)c3n2)CC1 [IV-27] | 9.00 |
| Cc1ccc(NC(=O)c2cccc(C(C)(C)C#N)c2)cc1Nc1ncnc2cnc(NC3CCN(C)CC3)nc12 [IV-28] | 9.00 |
| Cc1ccc(NC(=O)c2cccc(C(C)(C)C#N)c2)cc1Nc1ncnc2cnc(N(C)C3CCN(C)CC3)nc12 [IV-29] | 9.00 |
| Cc1ccc(NC(=O)c2cccc(C(C)(C)C#N)c2)cc1Nc1ncnc2cnc(NC3CCOC3)nc12 (centres unmarked) [IV-30] | > 9.00 |
| Cc1ccc(NC(=O)c2cccc(C(C)(C)C#N)c2)cc1Nc1ncnc2cnc(N(C)C3CCOCC3)nc12 [IV-31] | 8.30 |
| Cc1ccc(NC(=O)c2cccc(C(C)(C)C#N)c2)cc1Nc1ncnc2cnc(NC3CCOC3)nc12 (centres unmarked) [IV-32] | 9.00 |
| Cc1ccc(NC(=O)c2cccc(C(C)(C)C#N)c2)cc1Nc1ncnc2cnc(N3CCC(F)(F)C3)nc12 [IV-33] | 8.70 |
| Cc1ccc(NC(=O)c2cccc(C(C)(C)C#N)c2)cc1Nc1ncnc2cnc(N3CC[C@@H](F)C3)nc12 [IV-34] | 8.70 |
| Cc1ccc(NC(=O)c2cccc(C(C)(C)C#N)c2)cc1Nc1ncnc2cnc(N3CC[C@H](F)C3)nc12 [IV-35] | 8.70 |
| CC(=O)N1CCN(c2ncc3ncnc(Nc4cc(NC(=O)c5cccc(C(C)(C)C#N)c5)ccc4C)c3n2)CC1 [IV-36] | 8.40 |
